According to patent US9409905B2, “Antibacterial compounds and methods for use” (PTC THERAPEUTICS, INC., priority 2011, dated 2016):
≈ marks a conversion by molar mass, not a printed value.

Tests used:
[1] = system: Escherichia coli (E. coli) BAS849; assay: Antibacterial activity, microbroth dilution MIC (Table 1); assay type: cell-based; conditions: microbroth dilution, super sensitive Gram-negative E. coli BAS849, read-out: MIC, BAS849
Summary of the method: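 Using broth microdilution, MIC endpoints (μg/mL) mark where visible growth no longer appears; the panel spans sensitive and control Gram-negative strains plus a Gram-positive strain.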

[2] = system: Staphylococcus aureus (S. aureus) 29213; assay: as above; assay type: cell-based; conditions: microbroth dilution, Gram-positive S. aureus 29213, read-out: MIC, 29213
Summary of the method: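 Broth microdilution against S. aureus 29213, E. coli 25922 and hypersensitive E. coli BAS849. MIC in μg/mL is the lowest drug concentration preventing macroscopically visible growth under test conditions.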

E. coli 25922 = assay: as above; assay type: cell-based, Escherichia coli; conditions: Escherichia coli; microbroth dilution; control Gram-negative E. coli 25922 strain; read-out: MIC, 25922
Summary of the method: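 Lowest concentration stopping macroscopically visible growth under test conditions, by broth microdilution, defines the MIC (μg/mL).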

E. coli LZ3111 = assay: Antibacterial activity, MIC, quinolone resistant strain (Table 2); assay type: cell-based; conditions: Escherichia coli, LZ3111, read-out: MIC LZ3111
Summary of the method: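 Growth inhibition assessed by serial drug dilution in broth; endpoint was absence of macroscopically visible growth, reported as MIC, μg/mL.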

E. coli ELZ4000 = assay: Antibacterial activity, MIC, multi-drug resistant clinical isolate (Table 3); assay type: cell-based; conditions: Escherichia coli, ELZ4000, read-out: MIC ELZ4000
From the text: (§1) The antibacterial activity from a microbroth dilution method may be presented as the minimum inhibitory concentration (MIC in μg/mL). The MIC value is the lowest concentration of drug which prevents macroscopically visible growth under test conditions.
(§2) Antibacterial activity of test compounds against E. coli ELZ4000 and E. coli ELZ4251 multi-drug resistant clinical isolates is shown in Table 3.

E. coli ELZ4251 = assay: as above; assay type: cell-based; conditions: Escherichia coli
From the text: as §1, §2

[3] = system: Pseudomonas aeruginosa (P. aeruginosa) 27853; assay: Antibacterial activity, MIC (Table 5); assay type: cell-based; conditions: P. aeruginosa 27853, read-out: MIC, 27853
Summary of the method: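 Using a microbroth dilution format, the minimum inhibitory concentration was recorded as the lowest tested concentration that stopped visible bacterial growth, expressed in μg/mL.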

Structure (SMILES)	MIC [1] [µg/mL]	MIC [2] [µg/mL]	MIC (E. coli 25922) [µg/mL]	MIC (E. coli LZ3111) [µg/mL]	MIC (E. coli ELZ4000) [µg/mL]	MIC (E. coli ELZ4251) [µg/mL]	MIC [3] [µg/mL]
CCc1c(-c2ccc3ncccc3c2)[nH]c(=O)c(C(=O)O)c1O [Cpd 20, 5-ethyl-4-hydroxy-2-oxo-6-(quinolin-6-yl)-1,2-dihydropyridine-3-carboxylic acid]	1 to 3.5 (≈ 3.22 to 11.3 µM)	12.5 to 150 (≈ 40.3 to 483 µM)	12.5 to 150 (≈ 40.3 to 483 µM)	3.5 to 12.5 (≈ 11.3 to 40.3 µM)	12.5 to 150 (≈ 40.3 to 483 µM)	3.5 to 12.5 (≈ 11.3 to 40.3 µM)	12.5 to 150 (≈ 40.3 to 483 µM)
CCc1c(-c2ccc3c(c2)cc(CN2CC4CC2CN4)n3C)[nH]c(=O)c(C(=O)O)c1O (centres unmarked) [Cpd 182, 6-(2-(2,5-diazabicyclo[2.2.1]heptan-2-ylmethyl)-1-methyl-1H-indol-5-yl)-5-ethyl-4-hydroxy-2-oxo-1,2-dihydropyridine-3-carboxylic acid]	1 to 3.5 (≈ 2.37 to 8.28 µM)	12.5 to 150 (≈ 29.6 to 355 µM)	12.5 to 150 (≈ 29.6 to 355 µM)	3.5 to 12.5 (≈ 8.28 to 29.6 µM)	12.5 to 150 (≈ 29.6 to 355 µM)	12.5 to 150 (≈ 29.6 to 355 µM)	12.5 to 150 (≈ 29.6 to 355 µM)
CCc1c(-c2ccc3c(c2)cc(CN(C)C2CCCC2)n3C)[nH]c(=O)c(C(=O)O)c1O.Cl [Cpd 211, 6-(2-((cyclopentyl(methyl)amino)methyl)-1-methyl-1H-indol-5-yl)-5-ethyl-4-hydroxy-2-oxo-1,2-dihydropyridine-3-carboxylic acid hydrochloride]	< 1	3.5 to 12.5	1 to 3.5	3.5 to 12.5	12.5 to 150	12.5 to 150	12.5 to 150
CCc1c(-c2ccc3c(c2)cc(CNCc2ccccn2)n3C)[nH]c(=O)c(C(=O)O)c1O.Cl [Cpd 219, 5-ethyl-4-hydroxy-6-(1-methyl-2-((pyridin-2-ylmethylamino)methyl)-1H-indol-5-yl)-2-oxo-1,2-dihydropyridine-3-carboxylic acid hydrochloride]	< 1	1 to 3.5	1 to 3.5	3.5 to 12.5	12.5 to 150	12.5 to 150	12.5 to 150
CCc1c(-c2ccc3c(c2)cc(CNCC2CCOCC2)n3C)[nH]c(=O)c(C(=O)O)c1O.Cl [Cpd 227, 5-ethyl-4-hydroxy-6-(1-methyl-2-(((tetrahydro-2H-pyran-4-yl)methylamino)methyl)-1H-indol-5-yl)-2-oxo-1,2-dihydropyridine-3-carboxylic acid hydrochloride]	< 1	3.5 to 12.5	1 to 3.5	12.5 to 150	12.5 to 150	12.5 to 150	12.5 to 150
CCc1c(-c2ccc3c(c2)cc(CN2CCCNCC2)n3C)[nH]c(=O)c(C(=O)O)c1O.Cl.Cl [Cpd 239, 6-(2-((1,4-diazepan-1-yl)methyl)-1-methyl-1H-indol-5-yl)-5-ethyl-4-hydroxy-2-oxo-1,2-dihydropyridine-3-carboxylic acid dihydrochloride]	1 to 3.5	12.5 to 150	3.5 to 12.5	3.5 to 12.5	12.5 to 150	3.5 to 12.5	12.5 to 150
CCc1c(-c2ccc3c(c2)cc(CNC2CCCCC2)n3C)[nH]c(=O)c(C(=O)O)c1O.Cl [Cpd 241, 6-(2-((cyclohexylamino)methyl)-1-methyl-1H-indol-5-yl)-5-ethyl-4-hydroxy-2-oxo-1,2-dihydropyridine-3-carboxylic acid hydrochloride]	< 1	3.5 to 12.5	< 1	3.5 to 12.5	12.5 to 150	3.5 to 12.5	12.5 to 150
CCc1c(-c2ccc3c(c2)cc(CN2CCCC(O)C2)n3C)[nH]c(=O)c(C(=O)O)c1O (centres unmarked) [Cpd 255, 5-ethyl-4-hydroxy-6-(2-((3-hydroxypiperidin-1-yl)methyl)-1-methyl-1H-indol-5-yl)-2-oxo-1,2-dihydropyridine-3-carboxylic acid]	< 1	3.5 to 12.5 (≈ 8.23 to 29.4 µM)	1 to 3.5 (≈ 2.35 to 8.23 µM)	12.5 to 150 (≈ 29.4 to 353 µM)	12.5 to 150 (≈ 29.4 to 353 µM)	12.5 to 150 (≈ 29.4 to 353 µM)	12.5 to 150 (≈ 29.4 to 353 µM)
